The target in experiment [1] is T1, Acetylcholinesterase (Homo sapiens, UniProt P22303). The experiment is described as follows: Inhibition of AChE in erythrocytes (unknown origin) pre-incubated for 20 mins before acetylthiocholine substrate addition and measured over 30 mins by DTNB dye based spectrophotometry. The format is cell-based.
The target of experiment [2] is T1, Acetylcholinesterase. Put plainly: Inhibition of AChE in erythrocytes (unknown origin) pre-incubated for 20 mins before acetylthiocholine substrate addition and measured over 30 mins by DTNB dye based spectrophotometry relative to untreated control. It is filed as cell-based.
Experiment [3] can be described thus: Antioxidant activity assessed as DPPH radical scavenging activity incubated for 15 to 20 mins by UV-visible spectrometry relative to untreated control. The format is functional. A general note: DPPH is a stable violet radical that fades when it is reduced.
Experiment [4] in a line: Antioxidant activity assessed as DPPH radical scavenging activity incubated for 15 to 20 mins by UV-visible spectrometry. It is filed as functional.

T1 sequence (P22303 whole entry): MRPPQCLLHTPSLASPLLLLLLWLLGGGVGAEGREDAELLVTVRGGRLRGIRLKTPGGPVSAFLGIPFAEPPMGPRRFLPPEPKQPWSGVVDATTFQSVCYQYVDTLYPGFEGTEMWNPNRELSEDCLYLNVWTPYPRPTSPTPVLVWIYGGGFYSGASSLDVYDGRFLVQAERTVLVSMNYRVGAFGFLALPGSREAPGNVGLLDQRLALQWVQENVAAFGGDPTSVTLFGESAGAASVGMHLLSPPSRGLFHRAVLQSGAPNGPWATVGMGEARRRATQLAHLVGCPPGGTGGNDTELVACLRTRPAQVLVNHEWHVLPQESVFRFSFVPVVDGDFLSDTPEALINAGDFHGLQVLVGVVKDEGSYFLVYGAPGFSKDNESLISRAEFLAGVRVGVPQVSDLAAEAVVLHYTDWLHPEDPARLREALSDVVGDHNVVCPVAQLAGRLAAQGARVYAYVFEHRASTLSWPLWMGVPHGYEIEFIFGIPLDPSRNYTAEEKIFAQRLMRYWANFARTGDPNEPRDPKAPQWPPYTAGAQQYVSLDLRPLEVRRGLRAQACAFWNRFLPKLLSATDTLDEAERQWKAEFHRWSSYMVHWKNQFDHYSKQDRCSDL

With `Brc1ccc(-c2nnn3c2C2c4ccccc4CCN2Cc2ccccc2-3)cc1` (stereo unspecified), the IC50 against Acetylcholinesterase [1] is 250 nM; in experiment [4], 86.2 nM. The figures for the inhibition entry (at Acetylcholinesterase [1]; against Acetylcholinesterase [2]; in experiment [3]) were “Dose-dependent effect”, under 95% and 96.1%, respectively. For `Cc1ccc(-c2nnn3c2C2c4ccccc4CCN2Cc2ccccc2-3)cc1` (stereo unspecified), the inhibition result on Acetylcholinesterase [1] is “Dose-dependent effect”. Turning to `c1ccc(-c2nnn3c2C2c4ccccc4CCN2Cc2cc4c(cc2-3)OCO4)cc1` (stereo unspecified), the inhibition entry at Acetylcholinesterase [1] is “Dose-dependent effect”. Regarding `c1ccc(-c2nnn3c2C2CCCCN2Cc2cc4c(cc2-3)OCO4)cc1` (stereo unspecified), the figures for the inhibition entry (at Acetylcholinesterase [1]; in experiment [3]) were “Dose-dependent effect” and 92.3%, respectively. Further, the IC50 in experiment [4] was found to be 94.8 nM.

Consider `Fc1ccc(-c2nnn3c2C2c4ccccc4CCN2Cc2ccccc2-3)cc1` (stereo unspecified), for which the inhibition result at Acetylcholinesterase [1] was “Dose-dependent effect”. Take `O=C1O[C@H]([C@@H](O)CO)C(O)=C1O` [ASCORBIC ACID]: the inhibition in experiment [3] was 80.2%. Also, the IC50 in experiment [4] is 1250 nM. As for `c1ccc(-c2nnn3c2C2c4ccccc4CCN2Cc2ccccc2-3)cc1` (stereo unspecified), the inhibition entry at Acetylcholinesterase [1] is “Dose-dependent effect”. For the compound `Cn1c(=O)c2c(ncn2C)n(C)c1=O`, the inhibition entry on Acetylcholinesterase [1] was “Dose-dependent effect”. Consider `c1ccc(-c2nnn3c2C2CCCN2Cc2cc4c(cc2-3)OCO4)cc1` (stereo unspecified), for which the inhibition result at Acetylcholinesterase [1] is “Dose-dependent effect”.

As a reminder, the IC50 is the concentration that gives 50% inhibition. For orientation: inhibition means the share of the control response that was lost under treatment.

The record behind these values is ChEMBL document CHEMBL4392850, “Cu-mediated synthesis of differentially substituted diazepines as AChE inhibitors; validation through molecular docking and Lipinski's filter to develop novel anti-neurodegenerative drugs” (Bioorg Med Chem Lett, 2019).
